Values quoted from earlier work in patent publication US7955624B2, “Compositions and methods for increasing adipose metabolism, lipolysis or lipolytic metabolism via thermogenesis” (HHC Formulations Ltd., priority 2006, dated 2011).

What was measured:
[1] = active treatment versus placebo
[2] = mice
[3] = not given; remark: listed apart in the source
[4] = tested on: bovine adrenal medulla
[5] = mice; remark: listed apart in the source

With `O=C(O)c1cccnc1` [Niacin, nicotinic acid] as the compound, how does the “high-density lipoprotein cholesterol (HDL-C)” value [1] read?
The value was “increase”.

What about the “low-density lipoprotein cholesterol (LDL-C)” value [1] of the same compound?
The value was “decrease”.

And the total cholesterol [1]?
The total cholesterol was “decrease”.

And the triglyceride levels [1]?
The triglyceride levels was “decrease”.

Which results are given for `Cn1c(=O)c2c(ncn2C)n(C)c1=O` [caffeine]?
basal metabolic rate (humans): increase the basal metabolic rate; weight loss (obese women, caffeine supplementation): Significant weight loss

For `CN(C)CCO` [deanol, dimethylaminoethanol], which “plasma and tissue levels of choline” value [2] is on record?
Its value is “increase”.

With `O=P(O)(O)O[C@H]1[C@H](OP(=O)(O)O)[C@@H](OP(=O)(O)O)[C@H](OP(=O)(O)O)[C@@H](OP(=O)(O)O)[C@H]1OP(=O)(O)O` [inositol hexaphosphate, Inositol hexaphosphate] as the compound, how does the “reducing triglycerides, cholesterol and lipogenic enzymes” value ([3]; 0.02% to 10% phytic acid in a high sucrose diet) read?
The value was “dose-dependent response”.

What about the “food intake and growth” value ([3]; highest dose, 10% phytic acid) of the same compound?
The value was “reduction”.

Which “secretion of adrenergic signaling molecules” value [4] does the source give for evodiamine here?
The value was “increase the secretion”.

What about the body fat [5] of the same compound?
The body fat was “decrease body fat”.

And the energy expenditure [5]?
The energy expenditure was “increase energy expenditure”.

What about the lipid mobilization [5] of the same compound?
Its lipid mobilization is “increase”.
